We go through 24 compounds from patent US6620828B2, “Thiazole compounds and pharmaceutical compositions for inhibiting protein kinases and methods for their use” (Agouron Pharmaceuticals, Inc., priority 1999, dated 2003).

Some results are limits rather than exact numbers.

The target of test [1] is T1, unphosphorylated VEGF-R2Δ50 (FLVK) (Homo sapiens, UniProt P35968, DEL940-989/E990V).
T1 construct: VEGF-R2Δ50 contains residues 806-939 and 990-1171; made in house; host or cells: baculovirus/insect cells
Put plainly: VEGF-R2 coupled spectrophotometric assay, unphosphorylated enzyme (FLVK). Type of test: biochemical. The note with it: Table 3; for inhibition at 0.05 µM: at 50 nM; for Ki: some entries 'Slow binder'. The text has this:
VEGF-R2 Construct for Assay: This construct determines the ability of a test compound to inhibit tyrosine kinase activity. A construct (VEGF-R2Δ50) of the cytosolic domain of human vascular endothelial growth factor receptor 2 (VEGF-R2) lacking the 50 central residues of the 68 residues of the kinase insert domain was expressed in a baculovirus/insect cell system. Of the 1356 residues of full-length VEGF-R2, VEGF-R2Δ50 contains residues 806-939 and 990-1171, and also one point mutation (E990V) within the kinase insert domain relative to wild-type VEGF-R2. Autophosphorylation of the purified construct was performed by incubation of the enzyme at a concentration of 4 μM in the presence of 3 mM ATP and 40 mM MgCl2 in 100 mM Hepes, pH 7.5, containing 5% glycerol and 5 mM DTT, at 4° C. for 2 h. […] See Parast et al., Biochemistry, 37, 16788-16801 (1998).
The production of ADP from ATP that accompanies phosphoryl transfer was coupled to oxidation of NADH using phosphoenolpyruvate (PEP) and a system having pyruvate kinase (PK) and lactic dehydrogenase (LDH). The oxidation of NADH was monitored by following the decrease of absorbance at 340 nm (e340=6.22 cm^−1 mM^−1) using a Beckman DU 650 spectrophotometer. Assay conditions for phosphorylated VEGF-R2Δ50 (indicated as FLVK-P in the tables below) were the following: 1 mM PEP; 250 μM NADH; 50 units of LDH/mL; 20 units of PK/mL; 5 mM DTT; 5.1 mM poly(E4Y1); 1 mM ATP; and 25 mM MgCl2 in 200 mM Hepes, pH 7.5. Assay conditions for unphosphorylated VEGF-R2Δ50 (indicated as FLVK in the tables) were the following: 1 mM PEP; 250 μM NADH; 50 units of LDH/mL; 20 units of PK/mL; 5 mM DTT; 20 mM poly(E4Y1); 3 mM ATP; and 60 mM MgCl2 and 2 mM MnCl2 in 200 mM Hepes, pH 7.5. Assays were initiated with 5 to 40 nM of enzyme. Ki values were determined by measuring enzyme activity in the presence of varying concentrations of test compounds. The data were analyzed using Enzyme Kinetic and Kaleidagraph software.

Test [2] has as its system human umbilical vein endothelial cells (HUVEC). Put plainly: HUVEC proliferation assay. Type of test: cell-based. As to conditions: Homo sapiens, HUVEC, Table 3. The method in brief:
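Exponentially growing HUVEC were serum-starved 24 h (F12K + 1% FBS), pre-treated 1 h with compound (0.1% DMSO final), then stimulated with 6 ng/ml VEGF. Proliferation was read 72 h later by MTT reduction (A595). IC50 came from seven 0.5-log concentrations in triplicate; screens gave % inhibition relative to VEGF-only and starved wells.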

T1 sequence (P35968 with tags, fused parts or gaps DEL940-989/E990V limits assumed): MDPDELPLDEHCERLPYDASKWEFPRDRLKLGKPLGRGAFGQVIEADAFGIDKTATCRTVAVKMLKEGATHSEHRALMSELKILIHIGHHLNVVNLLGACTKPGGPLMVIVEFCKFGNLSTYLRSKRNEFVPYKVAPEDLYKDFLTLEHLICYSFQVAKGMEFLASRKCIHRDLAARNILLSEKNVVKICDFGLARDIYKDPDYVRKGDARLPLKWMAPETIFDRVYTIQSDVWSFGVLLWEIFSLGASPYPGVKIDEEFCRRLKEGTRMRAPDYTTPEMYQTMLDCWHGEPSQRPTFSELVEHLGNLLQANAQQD

`COc1cc(Nc2nc(N)c(-c3nc(-c4cc(N)c(F)cc4F)no3)s2)cc(OC)c1OC` [C(8), 5-[3-(5-Amino-2,4,-difluoro-phenyl)-[1,2,4]oxadiazol-5-yl]-N2-(3,4,5-trimethoxy-phenyl)-thiazole-2,4-diamine] gave an inhibition at 0.05 µM in test [1] of 21%. Besides, the IC50 in test [2] was above 700 nM.
The compound `COc1cc(Nc2nc(N)c(-c3nc(-c4cccc(NC(=O)c5cccc(C#N)c5)c4)no3)s2)cc(OC)c1OC` [D(68)] gave an inhibitory constant (Ki) in test [1] of 0.69 nM. This compound also registered an IC50 in test [2] above 100 nM.
In test [1], `COc1cc(Nc2nc(N)c(-c3nc(-c4cccc(-c5nc(C)n[nH]5)c4)no3)s2)cc(OC)c1OC` [B(37)] registered an inhibition at 0.05 µM of 36%. Moreover, the IC50 in test [2] is above 1000 nM.
The corresponding values for `COc1cc(Nc2nc(N)c(-c3nc(-c4cccc(-c5nc(C(C)C)n[nH]5)c4)no3)s2)cc(OC)c1OC` [B(38), 5-{3-[3-(5-isopropyl-2H-[1,2,4]triazol-3-yl)-phenyl]-[1,2,4]oxadiazol-5-yl}-N2-(3.4,5-trimethoxy-phenyl)-thiazole-2,4-diamine] are 13% and above 700 nM.
In the case of `COc1cc(Nc2nc(N)c(-c3nc(-c4cccc(NC(=O)c5ccc(CN6CCOCC6)cc5)c4)no3)s2)cc(OC)c1OC` [D(76)], the affinity in test [1] corresponds to a Ki of 2.7 nM. In test [2], this compound returned a half-maximal inhibitory concentration (IC50) above 1000 nM.
On to `Cc1cccc(C(=O)Nc2cccc(-c3noc(-c4sc(NC(=O)NCc5ccccc5)nc4N)n3)c2)c1` [F(14), N-(3-{5-[4-Amino-2-(3-benzyl-ureido)-thiazol-5-yl]-[1,2,4]oxadiazol-3-yl}-phenyl)-3-methyl-benzamide], for which the Ki in test [1] was 0.36 nM. In test [2], this compound displayed an IC50 of 150 nM.
The corresponding values for `Cc1cccc(C(=O)Nc2cccc(-c3noc(-c4sc(NC(=O)Nc5ccccc5)nc4N)n3)c2)c1` [F(12), N-(3-{5-[4-Amino-2-(3-phenyl-ureido)-thiazol-5-yl]-[1,2,4]oxadiazol-3-yl}-phenyl)-3-methyl-benzamide] are 2.2 nM and above 300 nM.
The compound `C#CCCCC(=O)Nc1cccc(-c2noc(-c3sc(Nc4cc(OC)c(OC)c(OC)c4)nc3N)n2)c1` [D(62), Hex-5-ynoic acid (3-{5-[4-amino-2-(3,4,5-trimethoxy-phenylamino)-thiazol-5-yl]-[1,2,4]oxadiazol-3-yl}-phenyl)-amide] yielded an inhibition at 0.05 µM in test [1] of 20%. Further, half-maximal inhibition in test [2] (IC50) was put at 500 nM.
For `COc1cccc(C(=O)Nc2ccc(C)c(-c3noc(-c4sc(NC(C)C)nc4N)n3)c2)c1` [B(22), N-{3-[5-(4-Amino-2-isopropylamino-thiazol-5-yl)-[1,2,4]oxadiazol-3-yl]-4-methyl-phenyl}-3-methoxy-benzamide], in that order: 54% and above 1000 nM.
For the compound `COc1cc(Nc2nc(N)c(-c3nc(-c4cccc(-c5nc(CC(C)C)n[nH]5)c4)no3)s2)cc(OC)c1OC` [B(39)], the affinity in test [1] corresponds to a Ki of 6.3 nM. In test [2], this compound came in with an IC50 above 100 nM.
The compound `COc1cccc(C(=O)Nc2cc(-c3noc(-c4sc(NC(=O)N[C@H]5CC[C@H](O)CC5)nc4N)n3)c(F)cc2F)c1` [O(11), N-[5-(5-{4-Amino-2-[3-(trans-4-hydroxy-cyclohexyl)-ureido]-thiazol-5-yl}-[1,2,4]oxadiazol-3-yl)-2,4-difluoro-phenyl]-3-methoxy-benzamide] yielded a Ki in test [1] of 0.45 nM. Further, the 50% inhibitory concentration (IC50) in test [2] amounted to 14 nM.
For `COc1cc(Nc2nc(N)c(-c3nc(-c4cc(NC(=O)OC(C)(C)C)ccc4C)no3)s2)cc(OC)c1OC` [B(6), 3-(2-methyl-5-(tert-butyloxycarboxyamino)-phenyl)-5-[2-[(3,4,5 trimethoxyphenyl)-amino]-4-amino-5-thiazolyl]-1,2,4-oxadiazole], in that order: 0.61 nM and 56 nM.
The corresponding values for `COc1cc(Nc2nc(N)c(-c3nc(-c4cc(NC(=O)OC(C)(C)C)c(Cl)cc4Cl)no3)s2)cc(OC)c1OC` [B(15), (5-{5-[4-Amino-2-(3,4,5-trimethoxy-phenylamino)-thiazol-5-yl]-[1,2,4]oxadiazol-3-yl}-2,4-dichloro-phenyl)-carbamic acid tert-butyl ester] are 1.7 nM and 100 nM.
Compound `COc1cc(Nc2nc(N)c(-c3nc(-c4cc(N)ccc4C)no3)s2)cc(OC)c1OC` [C(6), 3-(3-amino-6-methyl-phenyl)-5-[2-[(3,4,5 trimethoxyphenyl)-amino]-4-amino-5-thiazolyl]-1,2,4-oxadiazole] registered a Ki in test [1] of 33 nM. In test [2], this compound came in with a concentration for half-maximal inhibition (IC50) of 300 nM.
For `COc1cc(Nc2nc(N)c(-c3nc(-c4cc(N)ccc4Cl)no3)s2)cc(OC)c1OC` [C(7), 5-[3-(5-Amino-2-chloro-phenyl)-[1,2,4]oxadiazol-5-yl]-N2-(3,4,5-trimethoxy-phenyl)-thiazole-2,4-diamine], in that order: 17 nM and 300 nM.
For `COc1cccc(C(=O)Nc2cc(-c3noc(-c4sc(NC(=O)NCc5cccnc5)nc4N)n3)c(F)cc2F)c1` [O(9), N-(5-{5-[4-Amino-2-(3-pyridin-3-ylmethyl-ureido)-thiazol-5-yl]-[1,2,4]oxadiazol-3-yl}-2,4-difluoro-phenyl)-3-methoxy-benzamide], in that order: 0.42 nM and 4.3 nM.
The corresponding values for `COc1cccc(C(=O)Nc2cc(-c3noc(-c4sc(NC(=O)NCCO)nc4N)n3)c(F)cc2F)c1` [O(10), N-[5-(5-{4-Amino-2-[3-(2-hydroxy-ethyl)-ureido]-thiazol-5-yl}-[1,2,4]oxadiazol-3-yl)-2,4-difluoro-phenyl]-3-methoxy-benzamide] are 94 nM and 6.7 nM.
Compound `Nc1nc(Nc2cccc(-c3nn[nH]n3)c2)sc1-c1nc(-c2cccc(NC(=O)c3cccc(Cl)c3)c2)no1` [D(63), N-[3(5-{4-Amino-2-[3-(2H-tetrazol-5-yl)-phenylamino]-thiazol-5-yl]-[1,2,4]oxadiazol-3-yl)-phenyl]-3-chloro-benzamide] came in with an inhibition at 0.05 µM in test [1] of 51%. Moreover, the half-inhibitory concentration (IC50) in test [2] is above 10000 nM.
In turn, `COc1cc(Nc2nc(N)c(-c3nc(-c4cc(NC(=O)OC(C)(C)C)c(F)cc4F)no3)s2)cc(OC)c1OC` [B(13), (5-{5-[4-Amino-2-(3,4,5-trimethoxy-phenylamino)-thiazol-5-yl]-[1,2,4]oxadiazol-3-yl}-2,4-difluoro-phenyl)-carbamic acid tert-butyl ester] displayed an inhibition constant (Ki) in test [1] of 1.3 nM. Moreover, the half-maximal inhibitory concentration (IC50) in test [2] was 300 nM.
For `COc1cccc(C(=O)Nc2cc(-c3noc(-c4sc(NC(=O)NCC(C)C)nc4N)n3)c(F)cc2F)c1` [O(7), N-(5-{5-[4-Amino-2-(3-isobutyl-ureido)-thiazol-5-yl]-[1,2,4]oxadiazol-3-yl}-2,4-difluoro-phenyl)-3-methoxy-benzamide], in that order: 0.16 nM and 5.2 nM.
For `COc1cc(Nc2nc(N)c(-c3nc(-c4cc(N)c(F)cc4Cl)no3)s2)cc(OC)c1OC` [C(9), 5-[3-(5-Amino-2-chloro-4-fluoro-phenyl)-[1,2,4]oxadiazol-5-yl]-N-(3,4,5-trimethoxy-phenyl)-thiazole-2,4-diamine], the Ki in test [1] was 8 nM. Further, in test [2], the half-maximal inhibitory concentration (IC50) was 300 nM.
On to `Cc1ccc(NC(=O)C(O)CC(C)C)cc1-c1noc(-c2sc(Nc3ccc(N4CCN(C)CC4)nc3)nc2N)n1` (stereo not drawn) [B(29)], for which the inhibition constant Ki in test [1] came to 0.9 nM.
Turning to `COc1cccc(C(=O)Nc2ccc(C)c(-c3noc(-c4sc(Nc5ccc(N(C)C)cc5)nc4N)n3)c2)c1` [B(7), 3-[3-[(3-methoxybenzoyl)amino]-6-methyl-phenyl]-5-[2-[4-(N,N-dimethylaminophenyl)amino]-4-amino-5-thiazolyl]-1,2,4-oxadiazole], in test [1], the inhibition at 0.05 µM came to 61%.
Consider `COc1cccc(C(=O)Nc2cc(-c3noc(-c4sc(NC(=O)NCC(N)=O)nc4N)n3)c(F)cc2F)c1` [O(3), N-(5-{5-[4-Amino-2-(3-carbamoylmethyl-ureido)-thiazol-5-yl]-[1,2,4]oxadiazol-3-yl}-2,4-difluoro-phenyl)-3-methoxy-benzamide], for which, in test [1], the Ki was determined as 0.57 nM.
